pIC50: −log10 of the molar value.

We go through one molecule from patent US7524840B2, “7,8-disubstituted pyrazolobenzodiazepines” (Hoffmann-La Roche Inc., priority 2004, dated 2009).

In one test the test system is HCT-116. Briefly: HCT-116 (colon) cell-based MTT proliferation assay. Conditions: Homo sapiens, HCT-116, 96 h, 4 days post addition of test compound, read-out: Antiproliferative Activity HCT 116 (colon) Assay IC50. The method, then: The estrogen receptor negative epithelial breast carcinoma line (MDA-MB-435) was purchased from American Type Cell Culture Collection (ATCC; Rockville, Md.) and was grown in the medium recommended by ATCC. For analysis of the effect of the test compounds on growth of these cells, the cells were plated at 2000 cells per well in a 96-well tissue culture plate, and were incubated overnight at 37° C. with 5% CO2. The next day, the test compounds were dissolved in 100% dimethyl sulfoxide (DMSO) to yield a 10 mM stock solution. Each compound was diluted with sterile medium to 1 mM in a sufficient quantity to yield a final concentration of 120 μM. The compounds were then serially diluted in medium with 1.2% DMSO. One-fourth final volume of the diluted compounds was transferred to 96 well plates. Test compounds were assayed in duplicate. DMSO was added to a row of “control cells” such that the final concentration of DMSO in each well was 0.3%. Wells to which no cells were added served as the “blank.” Wells to which no inhibitor was added served as “no inhibitor control”. The plates were returned to the incubator, and 5 days post addition of test compound, were analyzed as described below.
3-(4,5-Dimethylthiazole-2-yl)-2,5-diphenyl-2H-tetrazolium bromide (thiazolyl blue; MTT) was added to each well to yield a final concentration of 1 mg/mL. The plates were then incubated at 37° C. for 3 hours. The plates were centrifuged at 1000 rpm for 5 minutes prior to aspiration of the MTT-containing medium. The MTT-containing medium was then removed and 100 μL 100% ethanol was added to each well to dissolve the resulting formazan metabolite. To ensure complete dissolution, plates were shaken for 15 minutes at room temperature. Absorbencies were read in a microtiter plate reader (Molecular Dynamics) at a wavelength of 570 nm with a 650 nm reference. Percent inhibition was calculated by subtracting the absorbance of the blank (no cell) wells from all wells, then subtracting the division of the average absorbance of each test duplicate by the average of the controls from 1.00. Inhibitory concentrations (IC50) were determined from the linear regression of a plot of the logarithm of the concentration versus the percent inhibition.
The colon adenocarcinoma line SW480 and the colon carcinoma line HCT-116 also were obtained from the ATCC and were tested according to the same protocol provided above for MDA-MB-435 cell based assay with the following modifications. Cell line SW480 was plated at 1000 cells per well and analyzed at 6 days post addition of the test compound. Cell line HCT-116 was plated at 1000 cells per well and analyzed at 4 days post addition of test compound.
On the technique in general: Formazan colour is commonly taken as a measure of viable cells.

The test system of the next test is FGF-stimulated HUVEC. Briefly: FGF-stimulated HUVEC proliferation assay (BrdU). The following applies: Homo sapiens, BrdU labeling, FGF 5 ng per mL, 24 hour exposure, read-out: Antiproliferative Activity FGF-stimulated HUVEC Assay IC50. The test is classed as cell-based. The method, then:
(§1) The antiproliferative activity of test compounds of this invention in cell-based assays was evaluated by BrdU assay using the BrdU kit (Roche Biochemicals 1-647-229). Human umbilical vein endothelial cells (HUVEC, Clonetics CC-2519) were cultured in EGM-2 (Clonetics CC-3162) medium and seeded at 10000 cells per well in a volume of 200 μL of EGM-2 (Clonetics CC-3162) media in a 96-well flat bottom plates (Costar 3595) overnight. After 24 hours of growth at 37° C. with 5% CO2, the incubation media was removed slowly by aspiration, and the content of each well was washed with 300 μL pre-warmed EBM-2 (Clonetics CC-3156) containing 50 μg per mL of gentamycin and 50 ng per mL of amphotercin-B (Clonetics CC-4083). Subsequently, the remaining media was again aspirated and replaced with 160 μL per well of serum starvation media (EBM-2 supplemented with 1% heat inactivated FBS (Clonetics CC-4102), 50 μg per mL gentamycin and 50 ng per mL of amphotercin-B (Clonetics CC-4083), 10 units per mL of Wyeth-Ayerst heparin (NDC0641-0391-25), and 2 mM L-glutamine (GIBCO 25030-081). After serum starving the cells for 24 hours, 20 μL of test compound at 10× test concentration in serum starvation medium with 2.5% DMSO was added to the appropriate wells. The control wells contained 20 μL of serum starvation medium with 2.5% DMSO. Plates were returned to the incubator for 2 hours. After pre-incubating the cells with the test compounds for 2 hours, 20 μL of growth factors at 10X assay concentration diluted in serum starvation media, FGF at 50 ng per mL, or VEGF (R&D systems 293-VE) at 200 ng per mL were added. The final concentration of FGF in the assay was 5 ng per mL and the final concentration of VEGF in the assays was 20 ng per mL. The growth factor free control wells had 20 μL per well of serum starvation media with the same amount of BSA as the wells with growth factors. The plates were returned to the incubator for an additional 22 hours.
(§2) After 24 hour exposure to the test compounds, the cells were labeled with BrdU (Roche Biochemicals 1-647-229), by adding 20 μL per well of BrdU labeling reagent that has been diluted (1:100) in serum starvation medium. The plates were then returned to the incubator for 4 hours. The labeling medium was removed by draining the medium onto paper towels. […] The plates were read at 450 nm with reference wavelength of 650 nm. The percent inhibition for each test compound was calculated by subtracting the absorbency of the blank (no cells) wells from all wells, then subtracting the division of the average absorbency of each test duplicate by the average of the controls from 1. […] The IC50 is determined from the linear regression of a plot of the logarithm of the concentration versus percent inhibition.
In general terms: Incorporation of labelled thymidine or its analogues reports DNA synthesis.

A further test relates to VEGF-stimulated HUVEC. Description: VEGF-stimulated HUVEC proliferation assay (BrdU). The test is classed as cell-based. Conditions: Homo sapiens, BrdU labeling, VEGF 20 ng per mL, 24 hour exposure, read-out: Antiproliferative Activity VEGF-stimulated HUVEC Assay IC50. The method, then: as §1, §2

For orientation: pIC50 means the IC50 on a negative log10 scale, so that one unit is a factor of ten. For `COc1cc2c(cc1F)C(c1ccccc1Cl)=Nc1c(n[nH]c1C)N2` [IVa, 5-(2-chlorophenyl)-1,2-dihydro-7-fluoro-8-methoxy-3-methyl-pyrazolo[3,4-b][1,4]benzodiazepine], the pIC50 in the test with HCT-116 was 5.98; in the test with FGF-stimulated HUVEC, 7.00; with VEGF-stimulated HUVEC, 7.64.
